Test results published in PubChem BioAssay AID1918945 (Molecular Pharmacology Branch, DTP, NCI, 2023).
pIC50: −log10 of the molar value.

Test system: 883617-216-R-J1-PDC complex spheroid viability
Assay: Anticancer human tumor 883617-216-R-J1-PDC patient-derived bladder carcinoma cell line growth inhibition
Conditions: for pIC50: curve of first compound; for viability, T/C: stronger effect = lower value
Outline: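 Multicellular complex spheroids of tumor cells with human endothelial cells (HUVEC) and mesenchymal stem cells; the LSD1 inhibitor iadademstat was combined with standard-of-care or investigational agents. Top concentration at or near clinical Cmax, half-log dilutions; final DMSO ≤0.25%.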

[1] = second compound 0.1 µM, first compound 0.0316 µM
[2] = second compound 0.1 µM, first compound 0.1 µM
[3] = second compound 0.1 µM, first compound 0.316 µM
[4] = second compound 0.1 µM, first compound 1 µM
[5] = second compound 0.316 µM, first compound 0.0316 µM
[6] = second compound 0.316 µM, first compound 0.1 µM
[7] = second compound 0.316 µM, first compound 0.316 µM
[8] = second compound 0.316 µM, first compound 1 µM
[9] = second compound 1 µM, first compound 0.0316 µM
[10] = second compound 1 µM, first compound 0.1 µM
[11] = second compound 1 µM, first compound 0.316 µM
[12] = second compound 1 µM, first compound 1 µM
[13] = second compound 3.16 µM, first compound 0.0316 µM
[14] = second compound 3.16 µM, first compound 0.1 µM
[15] = second compound 3.16 µM, first compound 0.316 µM
[16] = second compound 3.16 µM, first compound 1 µM
[17] = second compound 10 µM, first compound 0.0316 µM
[18] = second compound 10 µM, first compound 0.1 µM
[19] = second compound 10 µM, first compound 0.316 µM
[20] = second compound 10 µM, first compound 1 µM
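Note: exposure lasted seven days after three days of spheroid growth.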
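Throughout, for viability, T/C: 100% = DMSO vehicle control luminescence.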

COc1ccc([C@@H](O)c2cc(-c3ncnc4cc(N5CCOCC5)ccc34)c(F)cc2Cl)nn1 + NC1CCC(NC2CC2c2ccccc2)CC1
pIC50 (second compound 0.1 µM): 5.92 | pIC50 (second compound 0.316 µM): 5.86 | pIC50 (second compound 1 µM): 5.88 | pIC50 (second compound 3.16 µM): 5.97 | pIC50 (second compound 10 µM): 5.81 | viability, T/C [1]: 97.8% | viability, T/C [2]: 90.3% | viability, T/C [3]: 72% | viability, T/C [4]: 50.2% | viability, T/C (second compound 0.1 µM, first compound 3.16 µM): 38.2% | viability, T/C (second compound 0.1 µM, first compound 10 µM): 20.7% | viability, T/C [5]: 103% | viability, T/C [6]: 90.8% | viability, T/C [7]: 73.6% | viability, T/C [8]: 53.2% | viability, T/C (second compound 0.316 µM, first compound 3.16 µM): 38.5% | viability, T/C (second compound 0.316 µM, first compound 10 µM): 19.2% | viability, T/C [9]: 101% | viability, T/C [10]: 91.3% | viability, T/C [11]: 83.2% | viability, T/C [12]: 52.7% | viability, T/C (second compound 1 µM, first compound 3.16 µM): 35.1% | viability, T/C (second compound 1 µM, first compound 10 µM): 21% | viability, T/C [13]: 97.6% | viability, T/C [14]: 93.2% | viability, T/C [15]: 73.7% | viability, T/C [16]: 51.7% | viability, T/C (second compound 3.16 µM, first compound 3.16 µM): 32.1% | viability, T/C (second compound 3.16 µM, first compound 10 µM): 21.9% | viability, T/C [17]: 100% | viability, T/C [18]: 93.2% | viability, T/C [19]: 70.2% | viability, T/C [20]: 56.3% | viability, T/C (second compound 10 µM, first compound 3.16 µM): 41.4% | viability, T/C (second compound 10 µM, first compound 10 µM): 19.8%

Nc1ncn(C2CC(O)C(CO)S2)c(=O)n1 (stereo not given) + NC1CCC(NC2CC2c2ccccc2)CC1
pIC50 (second compound 0.1 µM): < 6.52 | pIC50 (second compound 0.316 µM): < 6.52 | pIC50 (second compound 1 µM): 6.54 | pIC50 (second compound 3.16 µM): < 6.52 | pIC50 (second compound 10 µM): < 6.52 | viability, T/C (second compound 0.1 µM, first compound 0.000949 µM): 106% | viability, T/C (second compound 0.1 µM, first compound 0.003 µM): 111% | viability, T/C (second compound 0.1 µM, first compound 0.00949 µM): 101% | viability, T/C (second compound 0.1 µM, first compound 0.03 µM): 72.9% | viability, T/C (second compound 0.1 µM, first compound 0.0949 µM): 59.1% | viability, T/C (second compound 0.1 µM, first compound 0.3 µM): 48.3% | viability, T/C (second compound 0.316 µM, first compound 0.000949 µM): 114% | viability, T/C (second compound 0.316 µM, first compound 0.003 µM): 110% | viability, T/C (second compound 0.316 µM, first compound 0.00949 µM): 102% | viability, T/C (second compound 0.316 µM, first compound 0.03 µM): 68.3% | viability, T/C (second compound 0.316 µM, first compound 0.0949 µM): 60.6% | viability, T/C (second compound 0.316 µM, first compound 0.3 µM): 52.8% | viability, T/C (second compound 1 µM, first compound 0.000949 µM): 113% | viability, T/C (second compound 1 µM, first compound 0.003 µM): 106% | viability, T/C (second compound 1 µM, first compound 0.00949 µM): 97.1% | viability, T/C (second compound 1 µM, first compound 0.03 µM): 75.4% | viability, T/C (second compound 1 µM, first compound 0.0949 µM): 57.5% | viability, T/C (second compound 1 µM, first compound 0.3 µM): 50.1% | viability, T/C (second compound 3.16 µM, first compound 0.000949 µM): 101% | viability, T/C (second compound 3.16 µM, first compound 0.003 µM): 106% | viability, T/C (second compound 3.16 µM, first compound 0.00949 µM): 86.1% | viability, T/C (second compound 3.16 µM, first compound 0.03 µM): 72.8% | viability, T/C (second compound 3.16 µM, first compound 0.0949 µM): 61.4% | viability, T/C (second compound 3.16 µM, first compound 0.3 µM): 53.7% | viability, T/C (second compound 10 µM, first compound 0.000949 µM): 110% | viability, T/C (second compound 10 µM, first compound 0.003 µM): 114% | viability, T/C (second compound 10 µM, first compound 0.00949 µM): 91.3% | viability, T/C (second compound 10 µM, first compound 0.03 µM): 74.8% | viability, T/C (second compound 10 µM, first compound 0.0949 µM): 67.7% | viability, T/C (second compound 10 µM, first compound 0.3 µM): 55.6%

O=C(C=Cn1cnc(-c2cc(C(F)(F)F)cc(C(F)(F)F)c2)n1)NNc1cnccn1 + NC1CCC(NC2CC2c2ccccc2)CC1
pIC50 (second compound 0.1 µM): 7.73 | pIC50 (second compound 0.316 µM): 7.75 | pIC50 (second compound 1 µM): 7.94 | pIC50 (second compound 3.16 µM): 7.77 | pIC50 (second compound 10 µM): 7.68 | viability, T/C (second compound 0.1 µM, first compound 0.00316 µM): 87.4% | viability, T/C (second compound 0.1 µM, first compound 0.01 µM): 65.9% | viability, T/C [1]: 36.3% | viability, T/C [2]: 32.7% | viability, T/C [3]: 28.9% | viability, T/C [4]: 26.9% | viability, T/C (second compound 0.316 µM, first compound 0.00316 µM): 102% | viability, T/C (second compound 0.316 µM, first compound 0.01 µM): 60.6% | viability, T/C [5]: 39% | viability, T/C [6]: 31.3% | viability, T/C [7]: 29.7% | viability, T/C [8]: 28.1% | viability, T/C (second compound 1 µM, first compound 0.00316 µM): 87.4% | viability, T/C (second compound 1 µM, first compound 0.01 µM): 51% | viability, T/C [9]: 36.5% | viability, T/C [10]: 32.7% | viability, T/C [11]: 28.1% | viability, T/C [12]: 26.2% | viability, T/C (second compound 3.16 µM, first compound 0.00316 µM): 99.5% | viability, T/C (second compound 3.16 µM, first compound 0.01 µM): 55.4% | viability, T/C [13]: 44% | viability, T/C [14]: 33% | viability, T/C [15]: 29.6% | viability, T/C [16]: 27.2% | viability, T/C (second compound 10 µM, first compound 0.00316 µM): 99.2% | viability, T/C (second compound 10 µM, first compound 0.01 µM): 63.2% | viability, T/C [17]: 40.7% | viability, T/C [18]: 36.8% | viability, T/C [19]: 31.8% | viability, T/C [20]: 29.5%
